# Key:
# Assay type in all cases: functional
# [1] = Antibacterial activity against Eberthella typhosa ATCC 14028 after 24 hrs by two-fold microbroth dilution method; settings: ATCC 14028, 24 h
# Staphylococcus aureus [2] = assay: Antibacterial activity against methicillin-resistant Staphylococcus aureus N315 after 24 hrs by two-fold microbroth dilution method; settings: N315, 24 h
# Escherichia coli = assay: Antibacterial activity against Escherichia coli JM109 after 24 hrs by two-fold microbroth dilution method; settings: JM109, 24 h
# Micrococcus luteus = assay: Antibacterial activity against Micrococcus luteus ATCC 4698 after 24 hrs by two-fold microbroth dilution method; settings: NCTC 2665, 24 h
# Bacillus = assay: Antibacterial activity against Bacillus proteus ATCC 13315 after 24 hrs by two-fold microbroth dilution method; settings: ATCC 13315, 24 h
# Cyberlindnera jadinii = assay: Antifungal activity against Candida utilis ATCC 9950 after 24 hrs by two-fold microbroth dilution method; settings: Williopsis jadinii, ATCC 9950, 24 h
# Pseudomonas aeruginosa [3] = assay: Antibacterial activity against Pseudomonas aeruginosa ATCC 27853 after 24 hrs by two-fold microbroth dilution method; settings: ATCC 27853, 24 h
# Aspergillus flavus = assay: Antifungal activity against Aspergillus flavus ATCC 204304 after 24 hrs by two-fold microbroth dilution method; settings: ATCC 204304, 24 h
# Staphylococcus aureus [4] = assay: Antibacterial activity against Staphylococcus aureus ATCC 25923 after 24 hrs by two-fold microbroth dilution method; settings: ATCC 25923, 24 h
# Pichia norvegensis = assay: Antifungal activity against Candida mycoderma ATCC 9888 after 24 hrs by two-fold microbroth dilution method; settings: ATCC 9888, 24 h
# Candida albicans = assay: Antifungal activity against Candida albicans ATCC 10231 after 24 hrs by two-fold microbroth dilution method; settings: ATCC 10231, 24 h
# Bacillus spizizenii = assay: Antibacterial activity against Bacillus subtilis ATCC 6633 after 24 hrs by two-fold microbroth dilution method; settings: ATCC 6633, 24 h
# Saccharomyces cerevisiae = assay: Antifungal activity against Saccharomyces cerevisiae ATCC 9763 after 24 hrs by two-fold microbroth dilution method; settings: ATCC 9763, 24 h
# HEp-2 = assay: Cytotoxicity against human Hep2 cells assessed as cell viability up to 125 ug/ml after 24 hrs by CCK8 assay relative to control
# Pseudomonas aeruginosa [5] = assay: Potency index, ratio of chloromycin MIC to compound MIC for Pseudomonas aeruginosa ATCC 27853
SMILES,MIC [1] [µg/mL],MIC (Staphylococcus aureus [2]) [µg/mL],MIC (Escherichia coli) [µg/mL],MIC (Micrococcus luteus) [µg/mL],MIC (Bacillus) [µg/mL],MIC (Cyberlindnera jadinii) [µg/mL],MIC (Pseudomonas aeruginosa [3]) [µg/mL],MIC (Aspergillus flavus) [µg/mL],MIC (Staphylococcus aureus [4]) [µg/mL],MIC (Pichia norvegensis) [µg/mL],MIC (Candida albicans) [µg/mL],MIC (Bacillus spizizenii) [µg/mL],MIC (Saccharomyces cerevisiae) [µg/mL],Activity (HEp-2) [%],Ratio (Pseudomonas aeruginosa [5])
CCCCn1c2ccc(C(=O)CCl)cc2c2cc(C(=O)CCl)ccc21,512,256,512,256,256,128,512,256,256,128,512,256,512,–,–
CCCCCCCCCCn1c2ccc(-c3csc(N)n3)cc2c2cc(-c3csc(N)n3)ccc21,512,128,256,256,128,256,512,128,128,128,128,512,256,–,–
CCCCCCCn1c2ccc(C(=O)CCl)cc2c2cc(C(=O)CCl)ccc21,512,512,512,512,512,512,512,512,512,256,512,512,512,–,–
OC(Cn1cncn1)(Cn1cncn1)c1ccc(F)cc1F [FLUCONAZOLE],–,–,–,–,–,8,–,256,–,32,32,–,16,–,–
CCCCCn1c2ccc(C(=O)CCl)cc2c2cc(C(=O)CCl)ccc21,256,512,128,512,512,128,128,128,256,256,256,512,128,–,–
CCCCCCCCn1c2ccc(C(=O)CCl)cc2c2cc(C(=O)CCl)ccc21,512,512,512,512,512,512,256,512,512,512,512,512,256,–,–
CCCCCCCCCCCCCCCCCCn1c2ccc(-c3csc(N)n3)cc2c2cc(-c3csc(N)n3)ccc21,256,512,128,512,256,256,512,256,256,512,256,256,256,–,–
CCn1c2ccc(C(=O)CCl)cc2c2cc(C(=O)CCl)ccc21,512,512,512,256,512,256,256,256,256,128,512,512,128,–,–
CCn1cc(C(=O)O)c(=O)c2cc(F)c(N3CCNCC3)cc21 [NORFLOXACIN],4,8,16,2,4,–,2,–,2,–,–,1,–,–,–
CCCCCCCCCCn1c2ccc(C(=O)CCl)cc2c2cc(C(=O)CCl)ccc21,256,512,512,128,256,256,128,512,256,256,256,256,256,–,–
CCCCn1c2ccc(-c3csc(N)n3)cc2c2cc(-c3csc(N)n3)ccc21,128,256,128,128,128,256,64,256,128,64,128,256,128,–,–
CCn1c2ccc(-c3csc(N)n3)cc2c2cc(-c3csc(N)n3)ccc21,256,512,128,128,256,128,256,256,256,64,64,256,256,–,–
CCCCCCCCCCCCCCCCn1c2ccc(C(=O)CCl)cc2c2cc(C(=O)CCl)ccc21,512,256,256,256,256,256,256,256,128,256,512,256,512,–,–
CCCCCCCCn1c2ccc(-c3csc(N)n3)cc2c2cc(-c3csc(N)n3)ccc21,512,32,512,512,128,512,512,256,64,512,512,512,512,–,–
CCCCCCn1c2ccc(C(=O)CCl)cc2c2cc(C(=O)CCl)ccc21,256,512,512,256,16,256,16,512,512,256,512,512,512,–,–
CCCCCn1c2ccc(-c3csc(N)n3)cc2c2cc(-c3csc(N)n3)ccc21,128,128,256,64,256,128,2,256,64,64,128,256,128,85,8
O=C(N[C@H](CO)[C@H](O)c1ccc([N+](=O)[O-])cc1)C(Cl)Cl [CHLORAMPHENICOL],32,64,–,64,32,–,–,–,8,–,–,32,–,–,–
CCCn1c2ccc(-c3csc(N)n3)cc2c2cc(-c3csc(N)n3)ccc21,256,256,256,128,256,128,128,256,128,256,64,128,256,–,–
CCCCCCCCCCCCCCCCCCn1c2ccc(C(=O)CCl)cc2c2cc(C(=O)CCl)ccc21,256,256,256,512,512,512,256,256,128,512,512,512,256,–,–
CCCCCCn1c2ccc(-c3csc(N)n3)cc2c2cc(-c3csc(N)n3)ccc21,256,64,128,256,256,256,32,512,32,128,256,512,256,–,–
CCCCCCCCCCCCCCCCn1c2ccc(-c3csc(N)n3)cc2c2cc(-c3csc(N)n3)ccc21,512,256,128,256,128,128,512,128,256,512,512,512,256,–,–
CCCn1c2ccc(C(=O)CCl)cc2c2cc(C(=O)CCl)ccc21,256,512,256,512,128,256,256,512,512,512,256,512,256,–,–

# Source: ChEMBL document CHEMBL3994568 (2016)
